Experiment [1] has as its system osteoarthritis. Kind of experiment: Treating osteoarthritis in a subject (experiments of prior application Ser. No. 13/428,996 and present application). The class given is in vivo. As to conditions: stated without data; based on prior and present application. The source says: Prior experiments conducted by the present inventors, such as those disclosed in the co-pending U.S. application Ser. No. 13/428,996 (the entirety of which is incorporated herein by reference) and experiments provided hereinbelow, reveal that several short, synthetic PEDF peptides derived from the 39-mer, are capable of treating osteoarthritis in a subject.

Experiment [2] deals with chondrocytes in damaged articular cartilage (MIA-induced osteoarthritis). Kind of experiment: MIA-induced knee osteoarthritis in rats: chondrocyte proliferation and cartilage regeneration in vivo. Further details: species or system Sprague-Dawley rats. To be noted: for BrdU/Aggrecan Labeling Index (%): rat MIA knee, 0.2 mM peptide in 25 μl of 5% HA (HA group: 5% HA alone), intra-articular on day 8, 12, 16, 20 post-MIA, mean±SEM, *P<0.0001 vs vehicle/HA; for H&E histology of knee joint (morphological changes associated with osteoarthritis): specimens day-18 and day-25 post-MIA injection, FIG. 1; for Chondrocytes in cartilage layers, microscopic images: knee specimens 25 days after MIA injection, FIG. 2. Here is the method:
Animal models of osteoarthritis were established by intra-articular injection of MIA. Specifically, adult 10-wk-old male Sprague-Dawley rats (initial body wt=312±11 g) were anesthetized with an intraperitoneal injection of xylazine (10 mg/kg), followed by a single intra-articular injection of MIA (1 mg of MIA in 25 μl of sterile saline) in the right knee. In particular, the MIA solution was injected through the patellar ligament by using a 27G needle with the leg flexed at a 90° angle at the knee.
For the detection of in vivo cell proliferation, BrdU was reconstituted in DMSO as stock (80 mM). 150 μl of BrdU mixed with 350 μl of PBS was intraperitoneally injected into rat at 16 hours prior to euthanasia. DNA synthesis was then assessed by BrdU labeling with anti-BrdU antibodies according to procedures set forth below.
The knee joints were dissected and the surrounding soft tissue was removed. Specimens were fixed in 4% paraformaldehyde and then decalcified with Shandon TBD-2 decalcifier (Thermo Scientific; Logan, Utah). The joints were then sectioned mid-sagittally and embedded in paraffin blocks. Sections (5 μm in thickness) were longitudinally cut.
Before use, fixed samples were de-pa raffinized in xylene and rehydrated in a graded series of ethanol. The sample were then stained with hematoxylin and eosin (H&E) or used for immunohistochemical examination. 20 sections per knee were carefully prepared so as to include the most severely degenerated area.
Paraffin-embedded joint specimens were deparaffinized in xylene and rehydrated in a graded series of ethanol. Deparaffinized specimens were then exposed to 1 N HCl at room temperature for 1 hour for subsequent immunofluorescence study.
(§1) For immunofluorescence study, the specimens were blocked with 10% goat serum and 5% BSA for 1 hour. Immunostaining was done using primary antibodies against aggrecan (1:100 dilution), type II collagen (1:100 dilution), and BrdU (1:100 dilution) at 37° C. for 2 hours, followed by incubation with the appropriate rhodamine- or FITC-conjugated donkey IgG for 1 hour at room temperature. Nuclei were located by counterstaining with Hoechst 33258 for 7 min. Images were captured using a Zeiss epifluorescence microscope with a CCD camera. Blinded quantification was performed in triplicate by manually counting cells from 20 randomly-selected fields in each section.
Knee osteoarthritis is a common chronic degenerative disease characterized by loss of articular cartilage. Injection of mono-iodoacetate (MIA), an inhibitor of glycolysis, into the femorotibial joint space of rodents has been reported to induce loss of articular cartilage similar to that noted in human OA. It has been established that extensive chondrocyte degeneration/necrosis usually arises at 7 days after MIA injection. Therefore, PEDF peptide treatment was started on day 8 post-MIA injection, so as to elucidate whether the present PEDF peptides promote cartilage regeneration.
Rats were randomly assigned to 6 experimental groups (n=6, each group) and treated as follows. In the HA group, rats received 25 μl of 5% hyaluronic acid injection. In the Vehicle/HA group, rats were treated with DMSO vehicle re-dissolved in 25 μl of 5% HA. As to the 29-mer/HA, 24-mer/HA, 20-mer/HA, and 18-mer/HA groups, rats received 0.2 mM PEDF peptide (29-mer, 24-mer, 20-mer or 18-mer) re-dissolved in 25 μl of 5% HA. Treatments were applied by way of a single intra-articular injection once on day-8, 12, 16 and 20, respectively, post-MIA injection.
Quantitative analysis was performed as described above from 3 sections per knee joint specimen, and 6 rats at each group. The BrdU/aggrecan labeling index (%) was computed as the number of BrdU- and aggrecan-double positive cells divided by the total number of aggrecan-positive cells. Results are summarized in Table 1; *P<0.0001 versus the vehicle/HA group.

Experiment [3] deals with primary chondrocytes from rat articular cartilage. Briefly: Primary articular chondrocyte proliferation in vitro. The class given is cell-based, Sprague-Dawley rats. To be noted: 50 nM peptide; for Aggrecan Labeling Index (%): rat articular chondrocyte monolayer culture, 12 days, mean±SEM, *P<0.01 vs untreated. The protocol: Articular cartilage was harvested from femoral condyles (the anterior, posterior and lateral areas) of adult 8-wk-old male Sprague-Dawley rats. Care was taken to avoid contamination with synovium and to disruption of the bony structures during the sampling process. Dissected tissue was cut into small (about 0.5 mm^3) pieces and digested sequentially by pronase (70 U/ml, 1 hour at 37° C.) and collagenase (300 U/ml, 3 hours at 37° C.). After digestion, collagenase was removed by a single wash in sterile phosphate-buffered saline (PBS), followed by two further washes in DMEM supplemented with 2% FBS. For primary culture, 6000 trypan blue-negative cells per well were plated on 10 μg/ml fibronectin-coated coverslips in a 6-well plate in 10% FBS-DMEM supplemented with 1% penicillin/streptomycin. The next day, the medium was changed to the standard expansion medium (consisting of 10% FBS-DMEM, 0.1 mM ascorbic acid, 0.5 mg/ml L-glucose, 100 mM HEPES, 1 mM sodium pyruvate, 2 mM L-glutamine and antibiotics) supplemented with or without 50 nM PEDF peptide). The medium was replaced every 3 days for 12 days.
as §1
Primary chondrocytes were isolated from rat articular cartilage and cultivated in the presence or absence of the present PEDF peptides to elucidate the stimulating effect of the present PEDF peptides on chondrocyte proliferation.
By contrast, in the vehicle group, the colonies are much smaller in the absence of PEDF peptides. The chondrocyte identity of cells within the colony was confirmed by aggrecan immunostaining (FIG. 4A, inserts). The level of aggrecan-positive cells in the monolayer culture (FIG. 4B) were quantified from 20 randomly selected fields, and the aggrecan labeling index (%) was computed as the number of aggrecan-labeled cells divided by the total number of cells (nucleus labeling by Hoechst 33258). Results are summarized in Table 2; *P<0.01 versus untreated cells.

Experiment [4] relates to mesenchymal stem cells (MSCs). Kind of experiment: Chondrogenic differentiation of MSCs: aggrecan immunostaining. The class given is cell-based, Sprague-Dawley rats. To be noted: rat MSCs in chondrogenic medium plus 50 nM peptide, 1 week; mean±SEM; *P<0.0001 vs vehicle. The protocol: Adult 8-wk-old male Sprague-Dawley rats were anesthetized with an intraperitoneal injection of xylazine (10 mg/kg). Femurs were aseptically harvested, washed in a mixture of PBS and antibiotics for 5 minutes, dissected of all soft tissue, transected at their epiphysis, and their marrow cavity was rinsed repeatedly with a mixture of heparin and DMEM. The harvested cells were centrifuged at 1000×g for 10 minutes. Cell pellets were resuspended with DMEM, and then the cell suspension was transferred to a 15-ml centrifuge tube containing 5 ml of Percoll (1.073 g/ml). After centrifugation at 1500×g for 30 minutes, the mononuclear cells in the middle layer were separated, washed three times with PBS and then resuspended in low-glucose DMEM with 10% heat-inactivated FBS and 1% penicillin/streptomycin. Cells were then incubated with 95% air and 5% CO2 at 37° C.; the medium was replaced every 4 days. Unattached cells were discarded and adherent cells were retained. The primary mesenchymal stem cells (MSCs) grew to approximately 80%-90% confluence after culture for 1 week.
For inducing the chondrogenic differentiation of MSCs, 5×10^5 expanded MSCs were exposed to chondrogenic medium (high-glucose DMEM with 100 nM dexamethasone, 0.17 mM ascorbic acid-2 phosphate, 10 μg/ml of insulin, 5 μg/ml of transferrin, 5 ng/ml selenium, 1 mM sodium pyruvate, 2 mM L-glutamine, and 2% FBS) supplemented with 10 ng/ml TGF-β2 (R&D Systems; Minneapolis, Minn.). […]
For immunofluorescence study, the specimens were blocked with 10% goat serum and 5% BSA for 1 hour. […] Blinded quantification was performed in triplicate by manually counting cells from 20 randomly-selected fields in each section.
Immunostaining for aggrecan and type II collagen was also performed to investigate the pro-differentiation activity of the present PEDF peptides. The level of aggrecan-positive cells were quantified from 20 randomly selected fields, and the aggrecan labeling index (%) was computed as the number of aggrecan-labeled cells divided by the total number of cells (nucleus labeling by Hoechst 33258). […]

The source of these data is patent US9777048B2, “Use of PEDF-derived polypeptides for treating osteoarthritis” (MacKay Memorial Hospital, priority 2012, dated 2017).

Regarding “ALSALSLGAEQRTESIIHRALYYDLISSPDIHGT [34-mer, corresponds to residues 88-121 of human PEDF]”, the “Effectiveness in treating osteoarthritis in a subject” value (“Effectiveness” for short) in experiment [1] is “effective”.
Turning to “EQRTESIIHRALYYDLIS (optionally in 5% hyaluronic acid) [18-mer, peptide lacking the SLGA residues; /HA = re-dissolved in 5% hyaluronic acid, reference compound]”, in experiment [2], the “BrdU/Aggrecan Labeling Index (%)” value is on record as “does not elicit such promoting effect”; the “H&E histology of knee joint (morphological changes associated with osteoarthritis)” value is “morphological changes associated with osteoarthritis (including the reduction of cartilage, the superficial fibrosis of cartilage and subchondral bone collapse) is noted”. Besides, the “BrdU/Aggrecan Labeling Index (%)” value in experiment [2] (listed as 18-mer/HA) amounted to 0.67 ± 0.33%. The “Aggrecan Labeling Index (%)” value in experiment [3] amounted to 31.8 ± 2.6%. In experiment [1], the “Effectiveness” value is given as “fails to elicit any protection against osteoarthritis”.
For the substance “EQRTESIIHRALYYDLISSPDIHGT [25-mer, peptide lacking the SLGA residues]”, the “Effectiveness” value in experiment [1] was “ineffective”.
As for “SLGAEQRTESIIHRALYYDL (optionally in 5% hyaluronic acid) [20-mer, residues 93-112 of human PEDF; /HA = re-dissolved in 5% hyaluronic acid]”, in experiment [2] (FIG. 3 middle panels), the “Aggrecan-positive cells among all cells (aggrecan/Hoechst 33258 dual staining)” value is recorded as “over 95%”. In experiment [2], the “Chondrocytes in cartilage layers, microscopic images” value is on record as “occupation of large numbers of newly generated chondrocyte throughout the cartilage”; the “BrdU/Aggrecan Labeling Index (%)” value is reported as 17.5 ± 2.7* %; the “H&E histology of knee joint (morphological changes associated with osteoarthritis)” value was “the cartilage surface is smoother and the cartilage and subchondral bone are relatively integral”. Also, in experiment [2] (superficial, transitional and deep zone, vs vehicle-treated knee, FIG. 3 left), the “Aggrecan-positive signals in cartilage (immunostaining)” value is given as “heavily accumulated”. The “Numbers of BrdU-positive cells” value in experiment [2] (vs vehicle/HA group, FIG. 3 right panels) is given as “increased significantly”. Also, the “Chondrocyte growth and colony formation” value in experiment [3] (vs vehicle group, FIG. 4A) was “chondrocytes grew faster and aggregated into huge three dimensional colonies”. Moreover, the “Aggrecan Labeling Index (%)” value in experiment [3] is reported as 50.1 ± 3.6* %. For the same substance, in experiment [4], the “Aggrecan Labeling Index (%)” value is 78.7 ± 3.8* %.
“SLGAEQRTESIIHRALYYDLISSP (optionally in 5% hyaluronic acid) [24-mer, residues 93-116 of human PEDF; /HA = re-dissolved in 5% hyaluronic acid]”: the “BrdU/Aggrecan Labeling Index (%)” value in experiment [2] is given as 16.0 ± 2.03* %. Besides, the “Aggrecan Labeling Index (%)” value is 50.0 ± 2.9* % in experiment [3] and 78.8 ± 4.3* % in experiment [4].
Regarding “SLGAEQRTESIIHRALYYDLISSPDIHGT (optionally in 5% hyaluronic acid) [29-mer, residues 93-121 of human PEDF; /HA = re-dissolved in 5% hyaluronic acid]”, in experiment [2], the “Chondrocytes in cartilage layers, microscopic images” value is recorded as “occupation of large numbers of newly generated chondrocyte throughout the cartilage” and the “BrdU/Aggrecan Labeling Index (%)” value is 15.0 ± 2.38* %. Also, the “Aggrecan Labeling Index (%)” value in experiment [3] is 52.2 ± 5.2* %. In experiment [4], the “Aggrecan Labeling Index (%)” value was 76.8 ± 5.0* %.
In the case of “hyaluronic acid [HA, reference compound]”, in experiment [2], the “BrdU/Aggrecan Labeling Index (%)” value is listed as 0.71 ± 0.28%.
